Read-outs that look alike come from different tables or passages of the source.
What was measured:
[1] = target: T1, Avi-KRAS G12C (2-169) GTP/RAF1 RBD-3xFLAG (51-131) (Homo sapiens, UniProt P01116, G12C); test: Raf1-KRAS G12C-GTP disruption HTRF assay (Biological Example 3); assay type: binding; details: KRAS G12C, GTP-loaded
T1 construct: Avi-KRAS G12C (2-169)
Summary of the method: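 50 nM Avi-KRAS (2-169) GTP/RAF1 RBD complex; 75 nM RBD-Avi; pH 7.5 Tris buffer, 10% DMSO; cpd 30 μM top, 3x, 10 pts; 1 h RT, 700 rpm; HTRF, % of DMSO.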

[2] = system: H358 cells (KRAS G12C); test: 3D Cell viability assay in H358 cells (Biological Example 6); assay type: cell-based; details: H358 (KRAS G12C) spheroids, 72 hours
Procedure: (§1) Biological Example 6: 3D Cell viability assay in AsPC-1, SW1900, HPAC, Capan-2, RKN, H358, HCT116, KP-2, H1573, A549, MKN1, and HT1080 cells
(§2) The inhibition of cellular viability as a result of test compound treatment in a spheroid assay was measured using the CellTiter-Glow 3D Cell Viability Assay (Promega).
(§3) On Day 1, 1000 cells per well were seeded in 150 μL of complete growth media supplemented with 10% fetal bovine serum (FBS) and incubated at 37° C., in the presence of 5% CO2 in 96-well ultra-low attachment microplates (Corning) for 48 hours undisturbed to allow spheroids to form.
(§4) Following spheroid formation, cells were treated with compounds diluted in DMSO at 0.25% final DMSO concentration. Compounds were dosed in a 9-point concentration curve with three-fold dilution between concentrations. Cells were incubated in the presence of compound for 72 hours at 37° C., in the presence of 5% CO2.
(§5) Following this incubation period, the kit-provided CTG reagent was allowed to equilibrate for 30 minutes at room temperature, 150 μL of equilibrated CTG reagent was added to each well, and the plate was sealed before shaking at 250 rpm for 10 minutes at room temperature to lyse the cells, 150 μL of lysate per well was transferred to a 96-well plate and luminescence was read on a CLARIOstar plate reader.
(§6) Data was imported into the Prism software package (Graphpad) and EC50 values were calculated using the log (inhibitor) vs, response—variable slope (Four parameters) model.

[3] = system: H358 cells (KRAS G12C); test: Cell-based pERK HTRF assay in H358 cells (Biological Example 5)
Procedure: (§7) Biological Example 5: Cell-based PERK HTRF assay in AsPC-1, SW1900, HPAC, Capan-2, RKN, H358, HCT116, KP-2, H1573, A549, MKN1, and HT1080 cells
(§8) The inhibition of ERK phosphorylation, as measured using the HTRF Advanced Phospho-ERK 1/2 (Thr202/Tyr204) Detection Assay kit (Perkin Elmer), was used to determine the effectiveness of test compounds in disrupting KRAS-driven protein/effector signaling in cells.
(§9) On day 1, cells were seeded into 96-well plates at 2.5×10^4 cells/well in 100 μL of complete growth media supplemented with 10% fetal bovine serum (FBS) and incubated at 37° C., in the presence of 5% CO2.
(§10) On day 2, cells were treated with compounds diluted in DMSO at 0.25% final DMSO concentration. Compounds were dosed in a 9-point concentration curve with three-fold dilution between concentrations. Cells were incubated in the presence of compound for two hours at 37° C. Following this treatment period, cells were harvested by aspirating the media, adding 40 μL of kit-supplied 1x lysis buffer per well, and shaking for 30 minutes at 250 rpm at room temperature.
(§11) Following cell lysis, samples were homogenized by pipetting up and down twenty times and 16 μL of cell lysate per well was transferred from the 96-well cell culture plate to two wells of a 384-well detection plate. A complete detection buffer was prepared by diluting D2 and Eu Cryptate antibodies 1:20 in kit-provided detection solution, 4 μL of complete detection buffer was then added to each well with lysate. Plates were incubated with gentle rocking for 24 hours at 4° C.
(§12) Following this incubation period, plates were centrifuged at 500×g for one minute and analyzed on a CLARIOstar plate reader. Data was imported into Microsoft Excel and the signal from the 665 nm channel was divided by the signal from the 620 nm channel. % pERK was calculated as: […]
(§13) Data was imported to the Prism software package (Graphpad) and EC50 values were calculated using the log (inhibitor) vs, response—variable slopc (Four parameters) model.

[4] = system: AsPC-1 cells (KRAS G12D); test: 3D Cell viability assay in AsPC-1 cells (Biological Example 6); assay type: cell-based; details: AsPC-1 (KRAS G12D) spheroids, 72 hours
Procedure: as §1, §2, §3, §4, §5, §6

[5] = system: HPAC cells (KRAS G12D); test: Cell-based pERK HTRF assay in HPAC cells (Biological Example 5)
Procedure: as §7, §8, §9, §10, §11, §12, §13

[6] = system: MKN1 cells (KRAS amplification); test: 3D Cell viability assay in MKN1 cells (Biological Example 6); assay type: cell-based; details: MKN (MKN1, KRAS amplification) spheroids, 72 hours
Procedure: as §1, §2, §3, §4, §5, §6

[7] = Homo sapiens, NCI-H358, H358 (KRAS G12C) cells

T1 sequence (P01116 2-169 isoform P01116-2 G12C): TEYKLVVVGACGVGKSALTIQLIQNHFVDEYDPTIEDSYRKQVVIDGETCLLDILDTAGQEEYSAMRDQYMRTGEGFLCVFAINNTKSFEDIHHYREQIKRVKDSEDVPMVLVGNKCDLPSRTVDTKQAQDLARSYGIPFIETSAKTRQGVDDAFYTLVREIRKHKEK

| SMILES | IC50 [1] [nM] | IC50 ([2]; Homo sapiens, NCI-H358) [nM] | IC50 [3, 7] [nM] | IC50 ([4]; Homo sapiens, ASPC1) [nM] | IC50 ([5]; Homo sapiens, HPAC) [nM] | IC50 ([6]; Homo sapiens, MKN-1) [nM] | IC50 [2] [nM] | IC50 ([3]; H358 (KRAS G12C) cells) [nM] | IC50 [4] [nM] | IC50 [5] [nM] | IC50 [6] [nM] |
| --- | --- | --- | --- | --- | --- | --- | --- | --- | --- | --- | --- |
| Cc1c(C(=O)N(C)C)nn2c1CN(c1nc(OC[C@@]34CCCN3C[C@H](F)C4)nc3c(F)c(-c4ccc(F)c5sc(N)c(C#N)c45)c(C(F)(F)F)cc13)CC2 (atropisomer, axis not shown; (aS)) [Compound 590, 5-((S)-7-(2-amino-3-cyano-7-fluorobenzo[b]thiophen-4-yl)-8-fluoro-2-(((2R,7aS)-2-fluorotetrahydro-1H-pyrrolizin-7a(5H)-yl)methoxy)-6-(trifluoromethyl)quinazolin-4-yl)-N,N,3-trimethyl-4,5,6,7-tetrahydropyrazolo[1,5-a]pyrazine-2-carboxamide] | – | – | – | – | – | – | ≤ 100 | ≤ 100 | ≤ 100 | ≤ 100 | ≤ 100 |
| N#Cc1c(N)sc2c(F)ccc(-c3c(C(F)(F)F)cc4c(N5CC6CC(C5)O6)nc(OC[C@@]56CCCN5C[C@H](F)C6)nc4c3F)c12 (single isomer, unassigned) [Compound 275] | – | ≤ 100 | ≤ 100 | > 1000 | 100 to 1000 | ≤ 100 | – | – | – | – | – |
| CCN(c1nc(OC[C@@]23CCCN2C[C@H](F)C3)nc2c(F)c(-c3ccc(F)c4sc(N)c(C#N)c34)c(C(F)(F)F)cc12)[C@H]1CCN(C(C)=O)C1 [Compound 262] | – | ≤ 100 | ≤ 100 | ≤ 100 | ≤ 100 | ≤ 100 | – | – | – | – | – |
| CCN(c1nc(OC[C@@]23CCCN2C[C@H](F)C3)nc2c(F)c(-c3ccc(F)c4sc(N)c(C#N)c34)c(C(F)(F)F)cc12)[C@@H]1CCN(C(C)=O)C1 [Compound 268] | – | ≤ 100 | ≤ 100 | ≤ 100 | ≤ 100 | ≤ 100 | – | – | – | – | – |
| CCN(c1nc(OC[C@@]23CCCN2C[C@H](F)C3)nc2c(F)c(-c3ccc(F)c4sc(N)c(C#N)c34)c(C(F)(F)F)cc12)[C@H]1CCN(C(=O)C(C)C)C1 [Compound 332] | – | ≤ 100 | – | ≤ 100 | – | ≤ 100 | – | ≤ 100 | – | ≤ 100 | – |
| CN(Cc1cccnc1N)c1nc(OC[C@@]23CCCN2C[C@H](F)C3)nc2c(F)c(-c3ccc(F)c4sc(N)c(C#N)c34)c(C(F)(F)F)cc12 [Compound 390] | – | ≤ 100 | ≤ 100 | ≤ 100 | ≤ 100 | ≤ 100 | – | – | – | – | – |
| N#Cc1cnn2c1CN(c1nc(OC[C@@]34CCCN3C[C@H](F)C4)nc3c(F)c(-c4ccc(F)c5sc(N)c(C#N)c45)c(C(F)(F)F)cc13)CC2 [Compound 392] | – | ≤ 100 | ≤ 100 | ≤ 100 | ≤ 100 | ≤ 100 | – | – | – | – | – |
| C[C@@H]1[C@H](N(C)c2nc(OC[C@@]34CCCN3C[C@H](F)C4)nc3c(F)c(-c4ccc(F)c5sc(N)c(C#N)c45)c(C(F)(F)F)cc23)CC(=O)N1C [Compound 440] | – | 100 to 1000 | 100 to 1000 | ≤ 100 | ≤ 100 | ≤ 100 | – | – | – | – | – |
| CCC(=O)N1C[C@@H](N(CC)c2nc(OC[C@@]34CCCN3C[C@H](F)C4)nc3c(F)c(-c4ccc(F)c5sc(N)c(C#N)c45)c(C(F)(F)F)cc23)C[C@H]1C [Compound 442] | – | ≤ 100 | ≤ 100 | ≤ 100 | ≤ 100 | ≤ 100 | – | – | – | – | – |
| CCN(c1nc(OC[C@@]23CCCN2C[C@H](F)C3)nc2c(F)c(-c3ccc(F)c4sc(N)c(C#N)c34)c(C(F)(F)F)cc12)[C@H]1C[C@H](C)N(C(C)=O)C1 [Compound 463] | – | ≤ 100 | ≤ 100 | ≤ 100 | 100 to 1000 | ≤ 100 | – | – | – | – | – |

Continued, values first:

| IC50 [1] [nM] | IC50 ([2]; Homo sapiens, NCI-H358) [nM] | IC50 [3, 7] [nM] | IC50 ([4]; Homo sapiens, ASPC1) [nM] | IC50 ([5]; Homo sapiens, HPAC) [nM] | IC50 ([6]; Homo sapiens, MKN-1) [nM] | IC50 [2] [nM] | IC50 ([3]; H358 (KRAS G12C) cells) [nM] | IC50 [4] [nM] | IC50 [5] [nM] | IC50 [6] [nM] | SMILES |
| --- | --- | --- | --- | --- | --- | --- | --- | --- | --- | --- | --- |
| ≤ 100 | ≤ 100 | ≤ 100 | ≤ 100 | ≤ 100 | ≤ 100 | – | – | – | – | – | CCN(c1nc(OC[C@@]23CCCN2C[C@H](F)C3)nc2c(F)c(-c3ccc(F)c4sc(N)c(C#N)c34)c(C(F)(F)F)cc12)[C@H]1CCN(C(=O)N2CC(F)C2)C1 (atropisomer, axis not shown) [Compound 606] |
| 100 to 1000 | ≤ 100 | ≤ 100 | ≤ 100 | ≤ 100 | ≤ 100 | – | – | – | – | – | C[C@H]1Cn2nc(C(=O)N(C)C)cc2CN1c1nc(OC[C@@]23CCCN2C[C@H](F)C3)nc2c(F)c(-c3ccc(F)c4sc(N)c(C#N)c34)c(C(F)(F)F)cc12 (atropisomer, axis not shown) [Compound 610] |
| ≤ 100 | ≤ 100 | ≤ 100 | ≤ 100 | ≤ 100 | ≤ 100 | – | – | – | – | – | C/C=C/C(=O)N1CC[C@H](N(CC)c2nc(OC[C@@]34CCCN3C[C@H](F)C4)nc3c(F)c(-c4ccc(F)c5sc(N)c(C#N)c45)c(C(F)(F)F)cc23)C1 (atropisomer, axis not shown) [Compound 674] |
| 100 to 1000 | ≤ 100 | ≤ 100 | ≤ 100 | 100 to 1000 | ≤ 100 | – | – | – | – | – | CCN(c1nc(OC[C@@]23CCCN2C[C@H](F)C3)nc2c(F)c(-c3ccc(F)c4sc(N)c(C#N)c34)c(C(F)(F)F)cc12)[C@H]1C[C@H](C)N(C(=O)N2CC(OC)C2)C1 (atropisomer, axis not shown) [Compound 764] |

Reference: patent publication US20260042764A1, “COMPOSITIONS AND METHODS FOR INHIBITION OF KRAS” (TheRas, Inc., priority 2022, published 2026)
